Test results: US9708331B2, “Metabotrophic glutamate receptor 5 modulators and methods of use thereof” (SUNOVION PHARMACEUTICALS INC., priority 2011, dated 2017)

Biological target: mGluR5 (Homo sapiens, UniProt P41594)
Assay: mGluR5 PAM EC50 (positive allosteric modulator potency)
Type: cell-based

Sequence of mGluR5 (P41594 21-1212): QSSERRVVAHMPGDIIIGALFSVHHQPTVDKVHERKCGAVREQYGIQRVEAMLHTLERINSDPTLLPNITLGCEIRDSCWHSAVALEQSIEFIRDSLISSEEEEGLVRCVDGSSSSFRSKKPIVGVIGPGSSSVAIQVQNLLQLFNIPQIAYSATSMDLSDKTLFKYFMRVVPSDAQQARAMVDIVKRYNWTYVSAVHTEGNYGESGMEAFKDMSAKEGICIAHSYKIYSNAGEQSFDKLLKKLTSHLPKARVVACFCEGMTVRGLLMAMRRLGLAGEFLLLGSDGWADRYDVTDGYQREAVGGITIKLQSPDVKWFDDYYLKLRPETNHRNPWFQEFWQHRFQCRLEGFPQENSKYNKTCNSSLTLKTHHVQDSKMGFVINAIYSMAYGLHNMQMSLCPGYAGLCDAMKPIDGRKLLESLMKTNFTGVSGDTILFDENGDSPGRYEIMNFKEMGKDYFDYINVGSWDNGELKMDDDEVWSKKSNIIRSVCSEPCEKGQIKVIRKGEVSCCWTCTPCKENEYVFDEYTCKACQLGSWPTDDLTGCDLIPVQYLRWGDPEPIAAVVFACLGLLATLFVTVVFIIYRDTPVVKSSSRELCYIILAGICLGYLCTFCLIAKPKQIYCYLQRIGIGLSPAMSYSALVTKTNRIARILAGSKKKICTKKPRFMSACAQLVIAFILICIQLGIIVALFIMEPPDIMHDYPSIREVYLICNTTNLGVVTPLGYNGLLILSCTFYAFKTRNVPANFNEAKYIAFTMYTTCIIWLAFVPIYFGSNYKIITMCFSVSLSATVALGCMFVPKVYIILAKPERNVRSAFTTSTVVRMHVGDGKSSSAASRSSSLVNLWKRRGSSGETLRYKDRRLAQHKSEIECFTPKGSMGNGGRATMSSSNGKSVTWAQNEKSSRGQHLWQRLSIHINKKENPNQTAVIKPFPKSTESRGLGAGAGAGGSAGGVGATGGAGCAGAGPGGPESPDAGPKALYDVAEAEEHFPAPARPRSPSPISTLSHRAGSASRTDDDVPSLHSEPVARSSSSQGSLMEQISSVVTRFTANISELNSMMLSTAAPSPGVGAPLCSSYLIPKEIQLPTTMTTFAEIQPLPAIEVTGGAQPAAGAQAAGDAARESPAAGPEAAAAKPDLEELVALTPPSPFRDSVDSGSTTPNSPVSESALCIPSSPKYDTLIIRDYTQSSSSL

EC50 [nM] | SMILES
100 to 300 | COCC1Cc2nc3cc(C#Cc4ccccn4)ccc3c(=O)n2C1 (single isomer, unassigned) [Example 1.1b]
10 to 30 | CC(C)(O)C1Cc2nc3cc(C#Cc4ccccn4)ccc3c(=O)n2C1 (single isomer, unassigned) [Example 1.2a]
300 to 1000 | CC(C)(O)C1Cc2nc3cc(C#Cc4ccccn4)ccc3c(=O)n2C1 (single isomer, unassigned) [Example 1.2b]
< 10 | CC(C)(F)C1Cc2nc3cc(C#Cc4ccccn4)ccc3c(=O)n2C1 (single isomer, unassigned) [Example 1.3a]
100 to 300 | CC(C)(F)C1Cc2nc3cc(C#Cc4ccccn4)ccc3c(=O)n2C1 (single isomer, unassigned) [Example 1.3b]
30 to 100 | O=c1c2ccc(C#Cc3ccccn3)cc2nc2n1CC(CF)C2 (single isomer, unassigned) [Example 1.9a]
300 to 1000 | O=c1c2ccc(C#Cc3ccccn3)cc2nc2n1CC(CF)C2 (single isomer, unassigned) [Example 1.9b]
< 10 | CC1(C)Cn2c(nc3cc(C#Cc4ccccn4)ccc3c2=O)C1F (single isomer, unassigned) [Example 1.11a]
10 to 30 | CC1(C)Cn2c(nc3cc(C#Cc4ccccn4)ccc3c2=O)C1F (single isomer, unassigned) [Example 1.11b]
10 to 30 | CC1CCn2c(nc3cc(C#Cc4ccccn4)ccc3c2=O)C1 (single isomer, unassigned) [Example 2.1a]
10 to 30 | CC1CCc2nc3cc(C#Cc4ccccn4)ccc3c(=O)n2C1 (single isomer, unassigned) [Example 2.2b]
< 10 | CC1CCCc2nc3cc(C#Cc4ccccn4)ccc3c(=O)n21 (single isomer, unassigned) [Example 2.3b]
< 10 | CC1Cn2c(nc3cc(C#Cc4ccccn4)ccc3c2=O)CO1 (single isomer, unassigned) [Example 2.4b]
30 to 100 | CC1Cn2c(nc3cc(C#Cc4ccccn4)ccc3c2=O)CN1C (single isomer, unassigned) [Example 2.5a]
30 to 100 | CCC1CCCc2nc3cc(C#Cc4ccccn4)ccc3c(=O)n21 (single isomer, unassigned) [Example 2.7a]
< 10 | CCC1CCCc2nc3cc(C#Cc4ccccn4)ccc3c(=O)n21 (single isomer, unassigned) [Example 2.7b]
10 to 30 | CC1(F)CCc2nc3cc(C#Cc4ccccn4)ccc3c(=O)n2C1 (single isomer, unassigned) [Example 2.13a]
< 10 | O=c1c2ccc(C#Cc3ccccn3)cc2nc2n1CC(C(F)(F)F)CC2 (single isomer, unassigned) [Example 2.14b]
30 to 100 | CC1(C)CC(F)c2nc3cc(C#Cc4ccccn4)cnc3c(=O)n2C1 (single isomer, unassigned) [Example 2.15a]

EC50 [nM] | SMILES
100 to 300 | CC1CCc2nc3cc(C#Cc4ccccn4)cnc3c(=O)n2C1 (single isomer, unassigned) [Example 2.16b]
300 to 1000 | CC1CCn2c(nc3cc(C#Cc4ccccn4)cnc3c2=O)C1 (single isomer, unassigned) [Example 2.17b]
100 to 300 | CCC1CCc2nc3cc(C#Cc4ccccn4)cnc3c(=O)n2C1 (single isomer, unassigned) [Example 2.22b]
10 to 30 | CCC1CCn2c(nc3cc(C#Cc4ccccn4)cnc3c2=O)C1 (single isomer, unassigned) [Example 2.22c]
30 to 100 | O=c1c2ccc(C#Cc3ccccn3)cc2nc2n1CCC(F)CC2 (single isomer, unassigned) [Example 3.1a]
300 to 1000 | O=c1c2ccc(C#Cc3ccccn3)cc2nc2n1CCC(O)CC2 (single isomer, unassigned) [Example 3.2a]
30 to 100 | O=c1c2ccc(C#Cc3ccccn3)cc2nc2n1CCC(O)CC2 (single isomer, unassigned) [Example 3.2b]
30 to 100 | O=c1c2ccc(C#Cc3ccccn3)cc2nc2n1CC1COCC1CC2 (single isomer, unassigned) [Example 3.2d]
30 to 100 | O=c1c2ccc(C#Cc3ccccn3)cc2nc2n1CCC1COCC1C2 (single isomer, unassigned) [Example 3.2e]
< 10 | O=c1c2ccc(C#Cc3ccccn3)cc2nc2n1CCC1COCC1C2 (single isomer, unassigned) [Example 3.2f]
30 to 100 | O=c1c2ccc(C#Cc3ccccn3)cc2nc2n1CCC1(CCCO1)CC2 (single isomer, unassigned) [Example 3.3a]
100 to 300 | O=c1c2ccc(C#Cc3ccccn3)cc2nc2n1CCC1(CCCO1)CC2 (single isomer, unassigned) [Example 3.3b]
30 to 100 | O=c1c2ncc(C#Cc3ccccn3)cc2nc2n1CCC(C(F)(F)F)CC2 (single isomer, unassigned) [Example 3.9a]
100 to 300 | CC1(F)CCc2nc3cc(C#Cc4ccccn4)cnc3c(=O)n2CC1 (single isomer, unassigned) [Example 3.10a]
< 10 | CC1CCc2nc3c(F)c(C#Cc4ccccn4)ccc3c(=O)n2CC1 (single isomer, unassigned) [Example 3.12a]
10 to 30 | CC1CCc2nc3c(F)c(C#Cc4ccccn4)ccc3c(=O)n2CC1 (single isomer, unassigned) [Example 3.12b]
< 10 | CCC1CCc2nc3cc(C#Cc4ccccn4)ccc3c(=O)n2CC1 (single isomer, unassigned) [Example 3.13a]
10 to 30 | CCC1CCc2nc3cc(C#Cc4ccccn4)ccc3c(=O)n2CC1 (single isomer, unassigned) [Example 3.13b]
30 to 100 | CCC1CCc2nc3cc(C#Cc4ccccn4)cnc3c(=O)n2CC1 (single isomer, unassigned) [Example 3.14a]

EC50 [nM] | SMILES
< 10 | CC1(F)CCCc2nc3cc(C#Cc4ccccn4)ccc3c(=O)n2C1 (single isomer, unassigned) [Example 3.24a]
30 to 100 | CC1Cc2nc3cc(C#Cc4ccccn4)cnc3c(=O)n2CCC1(F)F (single isomer, unassigned) [Example 3.31c]
30 to 100 | CC1Cn2c(nc3cc(C#Cc4ccccn4)cnc3c2=O)CCC1(F)F (single isomer, unassigned) [Example 3.31e]
30 to 100 | O=c1c2ccc(C#Cc3ccccn3)cc2nc2n1C[C@H]1CCCN21 (stereo in doubt) [Example 1.22]
100 to 300 | COCCC1Cc2nc3cc(C#Cc4ccccn4)ccc3c(=O)n2C1 (stereo not drawn) [Example 1.5, 2-(2-methoxyethyl)-6-(pyridin-2-ylethynyl)-2,3-dihydropyrrolo[2,1-b]quinazolin-9(1H)-one]
30 to 100 | O=c1c2ccc(C#Cc3ccccn3)cc2nc2n1CC1(COC1)C2 [Example 1.6, 6′-(pyridin-2-ylethynyl)-1′H-spiro[oxetane-3,2′-pyrrolo[2,1-b]quinazolin]-9′(3′H)-one]
< 10 | CC1(C)Cc2nc3c(F)c(C#Cc4ccccn4)ccc3c(=O)n2C1 [Example 1.16, 5-fluoro-2,2-dimethyl-6-(pyridin-2-ylethynyl)-2,3-dihydropyrrolo[2,1-b]quinazolin-9(1H)-one]
100 to 300 | O=c1c2ncc(C#Cc3ccccn3)cc2nc2n1CC(C(F)(F)F)C2 (stereo not drawn) [Example 1.17, 3-(pyridin-2-ylethynyl)-7-(trifluoromethyl)-7,8-dihydropyrido[3,2-d]pyrrolo[1,2-a]pyrimidin-10(6H)-one]
300 to 1000 | COCCC1Cc2nc3cc(C#Cc4ccccn4)cnc3c(=O)n2C1 (stereo not drawn) [Example 1.18, 7-(2-methoxyethyl)-3-(pyridin-2-ylethynyl)-7,8-dihydropyrido[3,2-d]pyrrolo[1,2-a]pyrimidin-10(6H)-one]
100 to 300 | CC1(C)Cn2c(nc3cc(C#Cc4ccccn4)cnc3c2=O)C1F (stereo not drawn) [Example 1.20, 6-fluoro-7,7-dimethyl-3-(pyridin-2-ylethynyl)-7,8-dihydropyrido[3,2-d]pyrrolo[1,2-a]pyrimidin-10(6H)-one]
30 to 100 | O=c1c2ccc(C#Cc3ccccn3)cc2nc2n1CC1CCCCN21 (stereo not drawn) [Example 1.23, 3-(pyridin-2-ylethynyl)-9,10,10a,11-tetrahydro-7H-pyrido[1′,2′:3,4]imidazo[2,1-b]quinazolin-13(8H)-one]
300 to 1000 | C=CC1(O)CCc2nc3cc(C#Cc4ccccn4)ccc3c(=O)n2C1 (stereo not drawn) [Example 2.18, 8-hydroxy-3-(pyridin-2-ylethynyl)-8-vinyl-8,9-dihydro-6H-pyrido[2,1-b]quinazolin-11(7H)-one]
30 to 100 | O=c1c2ncc(C#Cc3ccccn3)cc2nc2n1CCC(C(F)(F)F)C2 (stereo not drawn) [Example 2.21, 3-(pyridin-2-ylethynyl)-7-(trifluoromethyl)-8,9-dihydro-6H-dipyrido[1,2-a:3′,2′-d]pyrimidin-11(7H)-one]
< 10 | CC1(C)CCn2c(nc3cc(C#Cc4cccc(C#N)n4)ccc3c2=O)C1 [Example 2.24a, 6-((7,7-dimethyl-11-oxo-7,8,9,11-tetrahydro-6H-pyrido[2,1-b]quinazolin-3-yl)ethynyl)picolinonitrile]
10 to 30 | CC1(C)CCc2nc3cc(C#Cc4cccc(C#N)n4)ccc3c(=O)n2C1 [Example 2.24b, 6-((8,8-dimethyl-11-oxo-7,8,9,11-tetrahydro-6H-pyrido[2,1-b]quinazolin-3-yl)ethynyl)picolinonitrile]
10 to 30 | CC1(C)CCn2c(nc3cc(C#Cc4cc(C#N)ccn4)ccc3c2=O)C1 [Example 2.25a, 2-((7,7-dimethyl-11-oxo-7,8,9,11-tetrahydro-6H-pyrido[2,1-b]quinazolin-3-yl)ethynyl)isonicotinonitrile]
< 10 | CC1(C)CCc2nc3cc(C#Cc4cc(C#N)ccn4)ccc3c(=O)n2C1 [Example 2.25b, 2-((8,8-dimethyl-11-oxo-7,8,9,11-tetrahydro-6H-pyrido[2,1-b]quinazolin-3-yl)ethynyl)isonicotinonitrile]
100 to 300 | CC1(C)CCC2Cn3c(nc4cc(C#Cc5ccccn5)ccc4c3=O)CN21 (stereo not drawn) [Example 2.26, 3,3-dimethyl-8-(pyridin-2-ylethynyl)-2,3,13,13a-tetrahydro-1H-pyrrolo[1′,2′:4,5] pyrazino[2,1-b]quinazolin-11(5H)-one]
10 to 30 | CC1(C)CCn2c(nc3c(F)c(C#Cc4ccccn4)ccc3c2=O)C1 [Example 2.30a, 4-fluoro-7,7-dimethyl-3-(pyridin-2-ylethynyl)-8,9-dihydro-6H-pyrido[2,1-b]quinazolin-11(7H)-one]
